The record followed here is patent publication US6803480B2, “Diphenylmethane derivatives” (Bayer Aktiengesellschaft, priority 2000, dated 2004).

This assay can be described thus: T3 promoter assay cell test (luciferase reporter). Particulars: Homo sapiens; HepG2 cells, luciferase induction, costimulator retinoic acid, incubation 48 or 72 hours, four replicates. The format is cell-based. How it is done: Their activity can be tested, for example, in vitro by the following T3 promoter assay cell test:
The test is carried out with a stably transfected human HepG2 hepatocarcinoma cell which expresses a luciferase gene under the control of a thyroid hormone-regulated promoter. The vector used for the transfection has upstream of the luciferase gene a minimal thymidine kinase promoter with a thyroid hormone-responsive element (TRE) which consists of two inverted palindromes each of 12 bp and of an 8 bp spacer.
For the test, the cell cultures are seeded in Eagle's minimal essential medium in 96-well plates with the following additions: glutamine, tricine, sodium pyruvate, nonessential amino acids, insulin, selenium and transferrin. The cultures are grown at 37° C. with a 10% CO2 atmosphere for 48 hours. Then serial dilutions of test substance or reference compound (T3, T4) and costimulator retinoic acid are added to the test cultures and the latter are incubated as previously for a further 48 or 72 hours. Each substance concentration is tested in four replicates. To determine the luciferase induced by T3 or other substances, the cells are subsequently lysed by adding a Triton- and luciferin-containing buffer and measured immediately in a luminometer. The EC50 values for each compound are calculated (see Table 1).
Background: In a reporter assay the amount or activity of a reporter protein is the signal.
Take `Cc1cc(NC(=O)C(=O)O)cc(C)c1Cc1ccc(O)c(C(C)C)c1` [Example 2, 2-[4-(4-Hydroxy-3-isopropylbenzyl)-3,5-dimethylanilino]-2-oxoacetic acid]: the EC50 came to 0.14 nM.
For `COc1ccc(Cc2c(C)cc(NC(=O)C(=O)O)cc2C)cc1Cc1ccc(F)cc1` [Example 5, ({4-[3-(4-Fluorobenzyl)-4-methoxybenzyl]-3,5-dimethylphenyl}amino)(oxo)acetic acid], the EC50 stood at 4.3 nM.
Compound `Cc1cc(NC(=O)C(=O)O)cc(C)c1Cc1ccc(O)c(Cc2ccc(F)cc2)c1` [Example 4, ({4-[3-(4-Fluorobenzyl)-4-hydroxybenzyl]-3,5-dimethylphenyl}amino)(oxo)acetic acid] had an EC50 of 0.23 nM.

As usually defined, the EC50 is the concentration that produces a half-maximal response. Lower therefore signals greater potency.
